Experimental findings from patent publication US4596808A, “Pharmacologically active 3-substituted beta-carbolines useful as tranquilizers” (Schering Aktiengesellschaft, priority 1980, dated 1986) are described below.

Like-named read-outs stand apart in the source and are kept apart here. Some results are limits rather than exact numbers.

For test [1], the system named is pentazole-induced convulsions. The experiment in a line: Antagonism of pentazole-induced convulsions. The settings on record: sc. The test is classed as in vivo. The text has this:
Moreover, the antagonism of pentazole-induced convulsions was investigated.
The test has been performed according to known test models in pharmacology,e.g., described in R. A. Turner, Screening Methods in Pharmacology, Academic Press, N.Y. and London 1965, esp. p. 164 ff., or, Woodbury, P. M., Perry, I. K. and Schmidt, R. P. Antiepileptic Drugs, Raven Press, N.Y. 1972.

The target of test [2] is benzodiazepine receptor. The experiment in a line: Displacement of 3H-flunitrazepam from benzodiazepine receptors in vitro (IC50). The test is classed as binding. Conditions: rat forebrain, 3H-flunitrazepam 1.0 nM, 0° C. From the text: For example, it is known that certain locations in the central nervous system of vertebrates have a high specific affinity for bonding 1,4 and 1,5-benzodiazepines. (See, e.g., R. F. Squires & C. Braestrup, Nature [London] 266 [1977], 734, which is incorporated by reference herein). These locations are called benzodiazepine receptors.
This displacement activity of the compounds of this invention has been determined by measuring IC50 and ED50 values. The IC50 value is the concentration which causes a 50% displacement of the specific binding of ^3 H-flunitrazepam (1.0 nM, 0° C.) in samples with a total volume of 0.55 ml of a suspension of brain membrane, e.g., from rats.
The displacement test is carried out as follows:
0.5 ml of a suspension of untreated rat forebrain in 25 mM KH2 PO4, at a pH of 7.1 (5-10 mg of tissue per sample) were incubated with ^3 H-diazepam (specific activity 14.4 Ci/millimole, 1.9 nM) or ^3 H-flunitrazepam (specific activity 87 Ci/millimole, 1.0 nM) for 40-60 minutes at 0° C. After incubation, the suspension is filtered through a glass frit, the residue is washed twice with a cold buffer solution and the radioactivity is measured by scintillation counting.
The test is then repeated, except prior to addition of the radioactively marked benzodiazepine, a given amount or an excess amount of the compound whose displacement activity is to be ascertained, is added. The IC50 value can then be computed from the test results obtained.

For a further test, the system named is male mice. The experiment in a line: Inhibition of aggression in isolated male mice. The test is classed as in vivo. Conditions: Mus musculus, 0.5 h, half an hour. As to the method:
The compounds of the invention have an antiaggressive effect on mice. Aggression inhibition was determined on male mice (NMR from Moellegard, Denmark) with weights of 20-22 g. The mice are kept isolated for three weeks in plastic cages and when two mice are subsequently put into the same cage, they will spontaneously and almost instantaneously start to fight.
J. Pharmacol., 1978, 47, 45-49. The compounds of this invention were administered subcutaneously and orally and the anti-aggressive effect half an hour later was determined. The ED50 values were determined from the test results. These test results are listed in Table 2 for compounds of this invention and also for several known tranquilizers.

The test system of test [3] is benzodiazepine receptor. The experiment in a line: In vivo inhibition of 3H-flunitrazepam binding to the benzodiazepine receptor in living brain (ED50). The settings on record: mice, subcutaneous, 3H-flunitrazepam i.v. 15 min later.
[4] abbreviates: clonic, read-out: Antagonism of pentazole-induced convulsions, ED50 s.c., Clonic convulsions.
Where [5] appears, read: death, read-out: Antagonism of pentazole-induced convulsions, ED50 s.c., Death.
Where [6] appears, read: tonic, read-out: Antagonism of pentazole-induced convulsions, ED50 s.c., Tonic convulsions.
Setting [7] is: sc, s.c., read-out: Inhibition of Aggression ED50, s.c.
Setting [8] is: po, p.o., read-out: Inhibition of Aggression ED50, p.o.

Consider `CN(C)N=Cc1cc2c(cn1)[nH]c1ccc(S(=O)(=O)N(C)C)cc12` [drawing 46], for which the ED50 in test [1] (setting [4]) worked out at 20 mg/kg; in test [1] (setting [5]), 15 mg/kg; in test [1] (setting [6]) it was 15 mg/kg.
In the case of `C(=NN1CCOCC1)c1cc2c(cn1)[nH]c1ccccc12` [drawing 44], the 50% effective dose (ED50) is 100 mg/kg in test [1] (setting [4]), 50 mg/kg in test [1] (setting [5]) and 50 mg/kg in test [1] (setting [6]).
Turning to `O=Cc1cc2c(cn1)[nH]c1ccccc12` [CHO, beta-carboline-3-carboxaldehyde], at benzodiazepine receptor [2], the “In vitro IC50, inhibition of 3H flunitrazepam binding (Affinity for the benzodiazepine receptor)” value (from here on “In vitro IC50, inhibition”) was found to be 0.0302 µg/mL. The ED50 in the test on male mice (setting [7]) was 8 mg/kg. Moreover, the “In vivo ED50, inhibition of 3H flunitrazepam binding (Affinity for the benzodiazepine receptor)” value (“In vivo ED50, inhibition” below) in the test with benzodiazepine receptor [3] was greater than 250 mg/kg.
`CN(C)N=Cc1cc2c(cn1)[nH]c1ccccc12` [drawing 40]: the ED50 with male mice (setting [8]) is no more than 50 mg/kg; in the test with male mice (setting [7]), 7.5 mg/kg; in test [1] (setting [4]), 20 mg/kg; in test [1] (setting [5]), less than 10 mg/kg; in test [1] (setting [6]), less than 10 mg/kg.
For the compound `CC(=O)c1cc2c(cn1)[nH]c1ccccc12` [COCH3, 3-acetyl-beta-carboline], the “In vitro IC50, inhibition” value at benzodiazepine receptor [2] worked out at 0.0224 µg/mL. The ED50 in the test on male mice (setting [7]) is 35 mg/kg; in test [1] (setting [4]), greater than 100 mg/kg; in test [1] (setting [5]), 75 mg/kg; in test [1] (setting [6]), 100 mg/kg. The “In vivo ED50, inhibition” value in the test on benzodiazepine receptor [3] worked out at 100 mg/kg.
Consider `C(=NN1CCCCC1)c1cc2c(cn1)[nH]c1ccccc12` [drawing 43], for which the ED50 is greater than 100 mg/kg in test [1] (setting [4]), greater than 100 mg/kg in test [1] (setting [5]) and 50 mg/kg in test [1] (setting [6]).
On to `CC(=NO)c1cc2c(cn1)[nH]c1ccccc12` [drawing 39], for which the ED50 in the test with male mice (setting [8]) was 75 mg/kg.
As to `CC(=NN(C)C)c1cc2c(cn1)[nH]c1ccccc12` [drawing 42], the ED50 in test [1] (setting [4]) is greater than 100 mg/kg; in test [1] (setting [5]), 75 mg/kg; in test [1] (setting [6]), 75 mg/kg.
Regarding `C(=NN1CCCC1)c1cc2c(cn1)[nH]c1ccccc12` [drawing 45], the values for the ED50 in test [1] (setting [4]), in test [1] (setting [5]) and in test [1] (setting [6]) were 20 mg/kg, 15 mg/kg and 15 mg/kg, respectively.
For `CCN(CC)N=Cc1cc2c(cn1)[nH]c1ccccc12` [drawing 41], the ED50 in test [1] (setting [4]) was greater than 100 mg/kg; in test [1] (setting [5]) it was 100 mg/kg; in test [1] (setting [6]), 100 mg/kg.
Turning to `CN(C)S(=O)(=O)c1ccc2[nH]c3cnc(C=NN4CCCC4)cc3c2c1` [drawing 48], the values for the ED50 in test [1] (setting [4]), in test [1] (setting [5]) and in test [1] (setting [6]) were 50 mg/kg, 20 mg/kg and 20 mg/kg, respectively.
Regarding `CCOC(=O)C=Cc1cc2c(cn1)[nH]c1ccccc12` [CHCHCOOC2 H5, ethyl-3-(3-beta-carbolinyl)-acrylate], at benzodiazepine receptor [2], the “In vitro IC50, inhibition” value turned out to be 0.0589 µg/mL. In addition, the ED50 with male mice (setting [7]) was 4 mg/kg; in test [1] (setting [4]) it was greater than 100 mg/kg; in test [1] (setting [5]), 35 mg/kg; in test [1] (setting [6]), 100 mg/kg. For the same compound, the “In vivo ED50, inhibition” value in the test with benzodiazepine receptor [3] was greater than 250 mg/kg.
As for `CCOC(=O)Cc1cc2c(cn1)[nH]c1ccccc12` [CH2 COOC2 H5], the “In vitro IC50, inhibition” value on benzodiazepine receptor [2] stood at 0.363 µg/mL. Also, in the test with male mice (setting [7]), the ED50 stood at 75 mg/kg. Besides, the “In vivo ED50, inhibition” value in the test with benzodiazepine receptor [3] is reported as greater than 250 mg/kg.
As for `CON=Cc1cc2c(cn1)[nH]c1ccccc12` [CHNOCH3, beta-carboline-3-carboxaldehyde-oxime-methylether], on benzodiazepine receptor [2], the “In vitro IC50, inhibition” value was found to be 0.0513 µg/mL. For the same compound, the ED50 with male mice (setting [7]) is 15 mg/kg. For the same compound, the “In vivo ED50, inhibition” value with benzodiazepine receptor [3] was determined as 16 mg/kg.

For orientation: ED50 means the midpoint of the dose-response relation.
